The record followed here is ChEMBL document CHEMBL1131014, “Three-dimensional quantitative similarity-activity relationships (3D QSiAR) from SEAL similarity matrices” (J Med Chem, 1998).

Each structure is given as a SMILES string.

The target of test [1] is T1, Corticosteroid-binding globulin (Homo sapiens) (UniProt P08185).
T1 sequence (whole entry): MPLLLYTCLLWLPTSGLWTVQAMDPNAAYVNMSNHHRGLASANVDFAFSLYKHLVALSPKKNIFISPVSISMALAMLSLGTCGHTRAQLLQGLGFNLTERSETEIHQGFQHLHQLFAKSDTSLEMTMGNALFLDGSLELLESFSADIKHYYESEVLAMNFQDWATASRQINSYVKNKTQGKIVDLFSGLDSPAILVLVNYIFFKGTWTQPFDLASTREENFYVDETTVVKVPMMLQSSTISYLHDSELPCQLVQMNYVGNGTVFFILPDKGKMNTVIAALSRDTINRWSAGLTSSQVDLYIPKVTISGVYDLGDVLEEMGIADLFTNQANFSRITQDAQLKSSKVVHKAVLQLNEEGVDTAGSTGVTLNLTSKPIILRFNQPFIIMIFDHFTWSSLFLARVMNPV
Description: Binding affinity to corticosteroid binding globulin

The target of test [2] is T2, Corticosteroid-binding globulin (Sus scrofa) (UniProt Q9GK37).
T2 sequence (whole entry): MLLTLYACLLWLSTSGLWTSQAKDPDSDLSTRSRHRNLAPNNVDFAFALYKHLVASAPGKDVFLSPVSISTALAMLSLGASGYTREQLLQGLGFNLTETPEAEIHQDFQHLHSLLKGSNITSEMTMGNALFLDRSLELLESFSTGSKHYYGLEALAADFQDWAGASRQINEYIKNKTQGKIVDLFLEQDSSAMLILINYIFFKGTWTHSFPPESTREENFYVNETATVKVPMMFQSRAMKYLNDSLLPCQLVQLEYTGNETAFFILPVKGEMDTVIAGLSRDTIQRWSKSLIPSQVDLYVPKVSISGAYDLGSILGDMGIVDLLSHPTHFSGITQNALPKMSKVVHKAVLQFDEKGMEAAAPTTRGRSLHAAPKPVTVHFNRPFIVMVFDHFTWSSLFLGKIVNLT
Description: Compound was tested for Corticosteroid binding globulin affinity

`C[C@]12CCC(=O)C=C1CC[C@@H]1[C@@H]2[C@@H](O)C[C@]2(C=O)[C@@H](C(=O)CO)CC[C@@H]12`: the Log K in test [1] worked out at 6.28.

Turning to `CC(=O)[C@@]1(O)CC[C@H]2[C@@H]3CC[C@@H]4C[C@H](O)CC[C@]4(C)[C@H]3CC[C@@]21C`, the Log K in test [1] came out at 5.

Regarding `C[C@]12C[C@@H](O)[C@H]3[C@@H](CCC4=CC(=O)CC[C@@]43C)[C@@H]1CC[C@@H]2C(=O)CO`, the Log K in test [1] was found to be 7.2.

Regarding `C[C@]12CC[C@H]3[C@@H](CCC4=CC(=O)CC[C@@H]43)[C@@H]1CC[C@@H]2O`, the Log K in test [1] was found to be 6.14.

`C[C@@H]1C[C@@]2(C)C(=CC1=O)CC[C@H]1[C@@H]3CC[C@](O)(C(=O)CO)[C@@]3(C)C[C@H](O)[C@@]12F` showed a Log K in test [1] of 5.8.

For the molecule `CC(=O)[C@H]1CC[C@H]2[C@@H]3CC=C4C[C@@H](O)CC[C@]4(C)[C@H]3CC[C@]12C`, the Log K in test [1] was 5.25.

Turning to `C[C@]12CC[C@H]3[C@@H](CCC4=CC(=O)CC[C@@]43C)[C@@H]1CC[C@@H]2O`, the Log K in test [1] came out at 6.72.

In turn, `CC(=O)[C@@]1(O)[C@H](O)C[C@H]2[C@@H]3CCC4=CC(=O)CC[C@]4(C)[C@H]3CC[C@@]21C` gave a Log K in test [1] of 6.25.

Molecule `CC(=O)[C@@]1(O)CC[C@H]2[C@@H]3CCC4=CC(=O)CC[C@]4(C)[C@H]3CC[C@@]21C` registered a Log K in test [1] of 7.74.

Consider `CC(=O)OCC(=O)[C@@]1(O)CC[C@H]2C3CCC4=CC(=O)CC[C@]4(C)[C@H]3[C@@H](O)C[C@@]21C` (single isomer, unassigned), for which the Log K in test [1] was 7.55.

In test [1], `C[C@]12CC[C@H](O)C[C@@H]1CC[C@@H]1[C@@H]2CC[C@]2(C)[C@@H](O)CC[C@@H]12` showed a Log K of 5.

In test [1], `CC(=O)[C@H]1CC[C@H]2[C@@H]3CCC4=CC(=O)CC[C@]4(C)[C@H]3C(=O)C[C@]12C` gave a Log K of 6.78.

For `CC(=O)[C@H]1CC[C@H]2[C@@H]3CCC4=CC(=O)CCC4[C@H]3CC[C@]12C` (stereo not given in full), the Log K in test [1] turned out to be 6.82.

Consider `C[C@]12CCC(=O)C=C1CC[C@@H]1[C@@H]2CC[C@]2(C)C(=O)CC[C@@H]12`, for which the Log K in test [1] turned out to be 5.76.

`C[C@]12CCC(=O)C=C1CC[C@@H]1[C@@H]2CC[C@@]2(C)[C@H]1CC[C@]2(O)C(=O)CO` had a Log K in test [1] of 7.88.

In the case of `C[C@]12CC[C@@H]3c4ccc(O)cc4CC[C@H]3[C@@H]1CC[C@@H]2O`, in test [2], the Log K worked out at 5.

Turning to `C[C@]12CC[C@H](O)CC1=CC[C@@H]1[C@@H]2CC[C@]2(C)C(=O)CC[C@@H]12`, in test [1], the Log K was found to be 5.

`C[C@]12C[C@H](O)[C@H]3[C@@H](CCC4=CC(=O)CC[C@@]43C)[C@@H]1CC[C@@H]2C(=O)CO` showed a Log K in test [1] of 7.88.

As for `C[C@]12CC[C@H]3[C@@H](CCC4=CC(=O)CC[C@@]43C)[C@@H]1CC[C@@H]2C(=O)CO`, the Log K in test [1] is 7.65.

In the case of `C[C@]12CC[C@@H]3c4ccc(O)cc4CC[C@H]3[C@@H]1C[C@@H](O)[C@@H]2O`, in test [1], the Log K turned out to be 5.

In the case of `C[C@]12C=CC(=O)C=C1CCC1[C@@H]2[C@@H](O)C[C@@]2(C)[C@H]1CC[C@]2(O)C(=O)CO` (single isomer, unassigned), in test [1], the Log K was 7.51.

In test [1], `C[C@]12CCC(=O)C=C1CCC1[C@@H]2[C@@H](O)C[C@@]2(C)[C@H]1CC[C@]2(O)C(=O)CO` (single isomer, unassigned) showed a Log K of 7.88.

`CC(=O)[C@H]1[C@H](C)C[C@H]2[C@@H]3CCC4=CC(=O)CC[C@]4(C)[C@H]3CC[C@@]21C` gave a Log K in test [1] of 7.12.

In test [1], `CC(=O)[C@H]1CC[C@H]2[C@@H]3CCC4=CC(=O)CC[C@]4(C)[C@H]3CC[C@]12C` gave a Log K of 7.38.

Take `C[C@]12CCC(=O)C=C1CCC1[C@@H]2C(=O)C[C@@]2(C)[C@H]1CC[C@]2(O)C(=O)CO` (single isomer, unassigned): the Log K in test [1] was 6.89.
